Earlier results in patent US10980860B2, “Diagnosis, prevention and treatment of diseases of the joint” (Ascendis Pharma A/S, priority 2012, dated 2021).

Tested on: osteoarthritis
Conditions: injection into the joint; Chevalier et al, J. Rheumatol 32 (2005); cited from earlier work

Question: With “IL-1ra: IL-1ra (Anakinra, Kineret®, Swedish Orphan Biovitrum AB)” as the substance, how does the “Reduction of symptoms of osteoarthritis” value read?
Answer: not significantly reducing the symptoms of osteoarthritis
